Reference: US5180729A, “Use of sigma receptor antagonists for treatment of cocaine abuse” (Du Pont Merck Pharmaceutical Company, priority 1991, dated 1993)

Tested on: cocaine-induced motor activity
Test: Cocaine-induced behavior and baseline motor activity, same animal system (haloperidol)
Assay type: in vivo
Conditions: for Effect on baseline motor activity in the absence of cocaine (in words): same animal system as Ex. No. 504, cocaine-free animals
Description: Cocaine was administered to mice or rats and its effect in stimulating motor activity was quantified. The cocaine-stimulated motor activity was used to evaluate the effects of the sigma receptor antagonist in reducing this enhanced motor stimulation, i.e., counteracting the pharmacological effect of cocaine in the animal.

Question: `O=C(CCCN1CCC(O)(c2ccc(Cl)cc2)CC1)c1ccc(F)cc1` [haloperidol] was tested. Which “Effect on cocaine-induced behavior (in words)” value (same animal system as Ex. No. 504) did it give?
Answer: did not specifically inhibit cocaine-induced behavior

Question: What about the “Effect on baseline motor activity in the absence of cocaine (in words)” value of the same compound?
Answer: significantly depressed baseline motor activity

Question: And the “Effect on baseline motor activity in the absence of cocaine (in words)” value (listed as Haloperidol)?
Answer: adverse non-selective attenuation of normal motor activity
